From PubChem BioAssay (NCI)
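1) Cells in 96-well plates. 2) Compound, 48 h, 5 concentrations. 3) Linear interpolation between surrounding doses. 4) Unreached endpoint = highest concentration. Abbreviation: GI50, concentration required for 50% inhibition of growth. At the TGI there is no net growth.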

Assays:
Assay in all cases: growth of human tumour cells (NCI), 48 h
HCC-2998 colon = test system: HCC-2998 colon
SF-268 CNS = test system: SF-268 CNS
COLO 205 colon = test system: COLO 205 colon
SR leukemia = test system: SR leukemia
KM12 colon = test system: KM12 colon
HL-60(TB) leukemia = test system: HL-60(TB) leukemia
K-562 leukemia = test system: K-562 leukemia
NCI/ADR-RES ovarian = test system: NCI/ADR-RES ovarian
MCF7 breast = test system: MCF7 breast
T-47D breast = test system: T-47D breast

| SMILES | TGI (HCC-2998 colon) [µM] | TGI (SF-268 CNS) [µM] | TGI (COLO 205 colon) [µM] | TGI (SR leukemia) [µM] | TGI (KM12 colon) [µM] | TGI (HL-60(TB) leukemia) [µM] | TGI (K-562 leukemia) [µM] | GI50 (NCI/ADR-RES ovarian) [µM] | TGI (NCI/ADR-RES ovarian) [µM] | GI50 (HCC-2998 colon) [µM] | GI50 (MCF7 breast) [µM] | TGI (MCF7 breast) [µM] | GI50 (SF-268 CNS) [µM] | GI50 (COLO 205 colon) [µM] | GI50 (KM12 colon) [µM] | GI50 (HL-60(TB) leukemia) [µM] | GI50 (K-562 leukemia) [µM] | TGI (T-47D breast) [µM] | GI50 (T-47D breast) [µM] | GI50 (SR leukemia) [µM] |
| --- | --- | --- | --- | --- | --- | --- | --- | --- | --- | --- | --- | --- | --- | --- | --- | --- | --- | --- | --- | --- |
| O=[N+]([O-])c1ccc(-c2ccc(C3=Nn4c(CNc5ccccc5Cl)nnc4SC3)o2)cc1 | > 100 | > 100 | > 100 | > 100 | > 100 | > 100 | > 100 | – | – | – | – | – | – | – | – | – | – | – | – | – |
| COc1ccc(-c2nc3ccc(Cc4ccc5nc(-c6ccc(OC)cc6)[nH]c5c4)cc3[nH]2)cc1 | 0.188 | 1.85 | 0.184 | – | 0.163 | 0.079 | 0.159 | 0.0354 | 1.84 | 0.027 | 0.0254 | 0.424 | 0.0556 | < 0.01 | < 0.01 | < 0.0145 | < 0.01 | – | – | – |
| CC(=O)OCC(=O)[C@@]1(O)CC[C@H]2[C@@H]3C[C@H](C)C4=CC(=O)C=C[C@]4(C)[C@@]3(F)[C@@H](O)C[C@@]21C | > 100 | > 100 | > 100 | > 100 | > 100 | > 100 | > 100 | – | – | – | – | – | – | – | – | – | – | – | – | – |
| O=C1N[C@@H]2CCCC[C@@H]2C12CCCCC2 | > 100 | > 100 | – | > 100 | > 100 | > 100 | > 100 | – | – | – | – | – | – | – | – | – | – | – | – | – |
| CCOC(=O)c1ccc(N=Nc2ccc(N(CCC#N)CCC#N)cc2C)cc1 | > 100 | – | > 100 | – | > 100 | > 100 | > 100 | – | – | – | – | – | – | – | – | – | – | – | – | – |
| OC(c1ccccc1Br)(c1ccccc1Br)C(F)(F)F | 6.58 | 43 | 33.1 | 45.9 | 30.9 | – | – | – | – | – | – | – | – | – | – | – | – | – | – | – |
| O=C(CCCC(=O)Nc1ccc(Cl)cc1Cl)CC(=O)c1ccc2ccccc2c1 | > 100 | > 100 | > 100 | – | > 100 | > 100 | > 100 | – | – | – | – | – | – | – | – | – | – | – | – | – |
| c1ccc(C(c2ccccc2)c2ccccn2)cc1 | > 100 | > 100 | > 100 | – | > 100 | – | > 100 | – | – | – | – | – | – | – | – | – | – | – | – | – |
| COc1ccc2nc(NC(=O)C(=O)CC(=O)c3ccc([N+](=O)[O-])cc3)sc2c1 | > 100 | > 100 | > 100 | – | > 100 | – | > 100 | – | – | – | – | – | – | – | – | – | – | – | – | – |
| CCOC(=O)C1=C(NC)OCC1=O | > 100 | > 100 | > 100 | – | > 100 | > 100 | > 100 | – | – | – | – | – | – | – | – | – | – | – | – | – |
| O=C1NC(=O)C2C(=O)NC(=O)C1C2Cc1ccco1 (configuration not stated) | > 100 | > 100 | > 100 | – | > 100 | > 100 | > 100 | – | – | – | – | – | – | – | – | – | – | – | – | – |
| COC(=O)C1=C(C(=O)OC)C2(c3ccccc3)OC1(c1ccccc1)c1cc3ccccc3cc12 | 3.7 | 3.77 | 4.18 | – | 3.97 | 1.84 | 6.06 | – | – | – | – | – | – | – | – | – | – | – | – | – |
| Cc1ccc(S(=O)(=O)NCCCCC(N)C(=O)O)cc1 (configuration not stated) | – | > 100 | > 100 | – | > 100 | – | > 100 | – | > 100 | – | – | > 100 | – | – | – | – | – | > 100 | – | – |
| NC1=NC(Cn2nc(-c3ccccc3)c3ccccc3c2=O)=NNC(=O)N1 | > 100 | > 100 | > 100 | > 100 | > 100 | – | > 100 | – | – | – | – | – | – | – | – | – | – | – | – | – |
| COc1ccc(-c2[nH]c3ccc(OC)cc3c2C=C(C#N)C#N)cc1 | – | > 100 | 1.02 | 0.116 | > 100 | – | > 100 | 0.389 | > 100 | – | 0.382 | > 100 | 1.67 | 0.288 | 0.52 | – | 0.343 | > 100 | 2.57 | 0.0188 |
| CC(=O)Nc1ccc(C2CC(c3ccc([N+](=O)[O-])cc3)=Nc3ccccc3S2=O)cc1 (configuration not stated) | 30.5 | > 100 | 44.9 | – | 35.1 | 42.2 | 23.1 | – | – | – | – | – | – | – | – | – | – | – | – | – |
| COc1cc(/C=C2\NC(=O)C(Cc3cc(OC)c(OC)c(C)c3OC)N(C(C)=O)C2=O)c(OC)c(C)c1OC (configuration not stated) | > 100 | > 100 | > 100 | > 100 | > 100 | 69.9 | > 100 | – | – | – | – | – | – | – | – | – | – | – | – | – |
| C(=Nc1nc(SCc2ccccc2)nc2[nH]ncc12)c1cccs1 | > 100 | > 100 | 76.4 | 65.3 | > 100 | – | > 100 | 49.6 | > 100 | 37.7 | 40.4 | > 100 | 30.4 | 22.2 | 36.7 | – | 35 | 52.8 | 21.9 | 18.7 |
| CCOC(=O)/C(=C/c1ccccn1)C(=O)c1ccccc1 | 31.3 | 44 | 28.3 | 14.2 | 26.4 | 5.3 | 85 | – | – | – | – | – | – | – | – | – | – | – | – | – |
| N#Cc1ccc(Sc2nc3ccccc3[nH]2)cc1 | – | > 100 | > 100 | > 100 | > 100 | > 100 | > 100 | – | – | – | – | – | – | – | – | – | – | – | – | – |
| COc1ccccc1Oc1nccc(-c2c(-c3ccc(F)cc3)ncn2C2CCNCC2)n1 | > 25 | > 25 | > 19.9 | – | > 25 | > 25 | > 25 | > 25 | > 25 | 11.8 | 16 | > 25 | > 25 | 7.37 | > 25 | > 23.3 | 8.32 | > 25 | > 25 | – |
| COc1cc(/C=C/c2csnn2)cc(OC)c1OC | > 100 | > 100 | – | > 100 | > 100 | > 100 | > 100 | – | – | – | – | – | – | – | – | – | – | – | – | – |
| O=C(O)CN(CCN(CC(=O)O)CC(=O)O)CC(=O)O.[Mn+2] | > 100 | > 100 | > 100 | – | > 100 | > 100 | > 100 | > 100 | > 100 | > 100 | > 100 | > 100 | > 100 | > 100 | > 100 | > 100 | > 100 | > 100 | > 100 | – |
| COc1ccc(/C=C2\C(=O)N(NC(C)=O)c3ccccc32)cc1 | > 100 | > 100 | > 100 | – | > 100 | – | > 100 | – | – | – | – | – | – | – | – | – | – | – | – | – |
| COC(=O)C(C(=O)C(=O)Nc1c(Cl)cc([N+](=O)[O-])cc1Cl)c1csc(-n2nc(C3=CCCCC3)cc2-c2ccccc2)n1 (configuration not stated) | > 100 | > 100 | > 100 | 78 | > 100 | > 100 | > 100 | – | – | – | – | – | – | – | – | – | – | – | – | – |
